Patent US6262108A, “Medicinal use of cromoglycic acid compounds” (Kyoto Pharmaceutical Industries, Ltd., priority 1997, dated 2001)
Entries after “also recorded” stand apart in the source; their conditions may differ.

What was measured:
[1] = test system: bone of feet and digits of the four limbs; test: X-ray score of bone destruction in collagen-induced arthritis mice; assay type: in vivo, male DBA/1J mice; settings: 100 mg/kg/day orally
Excerpt: (§1) According to the method of Courtenay et al. (Courtenay, J. S. et al.: Immunization against heterologous type II collagen induces arthritis in mice. Nature, 283:666, 1980), male DBA/1J mice (CHARLES RIVER JAPAN INC.) were sensitized with bovine type II collagen to induce collagen-induced arthritis (rheumatoid arthritis). After the onset of arthritis, diethyl acetoacetylcromoglycate was orally administered and its inhibitory effect was examined. The method is detailed in the following.
(§2) Male DBA/1J mice (8-week-old) were pre-bred for one week and divided into the following 3 groups based on body weight (8-10 per group). […]
In addition, the whole body w as X-ray photographed and destruction state of the bone of feet and digits of the four limbs was scored (X-ray score) by a blind test according to the criteria of Gliman et al. (Gliman S. C. et al.: Immunological abnormalities in rats with adjuvant-induced ar thritis, II. Effect of antiarthritic therapy on immune function in relation to disease development, Int. J. Immunopharmacol. , 9:9-16, 1987), wherein normal was rated 0 point, destruction in one joint was 1 point, destruction in two or more joints, though not all joints, was 2 points, and destruction in all joints was 3 points, each mouse scoring 0 to 12 points in total.

[2] = test system: anti-bovine type II collagen antibody; test: Anti-bovine type II collagen antibody titer in blood (ELISA) in collagen-induced arthritis mice; assay type: in vivo, male DBA/1J mice; settings: 100 mg/kg/day orally
Excerpt: as §1, §2
At day 42 after the initiation of treatment, blood was taken from carotid artery and the mice were exsanguinated to death under ether anesthesia. The anti-bovine type II collagen antibody titer in blood was determined by the ELISA method according to the method of Stuart et al. (Stuart, J. M. et al.: Nature and specificity of the immune response to collagen in type II collagen-induced arthritis in mice, J. Clin. Invest., 69:673-683, 1982).

[3] = test system: collagen-induced arthritis in mice; test: Collagen-induced arthritis in mice: arthritis score; assay type: in vivo, male DBA/1J mice; settings: for Arthritis score: mean ± standard error (n = 8-10)
Excerpt: as §1
Male DBA/1J mice (8-week-old) were pre-bred for one week and divided into the following 3 groups based on body weight (8-10 per group).
Bovine type II collagen (2 mg) was dissolved in 0.01M acetic acid (1 ml) and suspended in an equivalent amount of Freund's complete adjuvant, and 0.1 ml thereof was intradermally injected to the control group and treated group at 9 weeks of age at the base of the tail, followed by the second injection three weeks later at 12 weeks of age.
Starting from day 31 after the initial injection of collagen till the end of the treatment, the mice of each group were scored (arthritis score) twice a week for the levels of redness, swelling and stiffness of four limbs by a blind test method. The scores were taken according to a method similar to the method of Bjork et al. (Bjork, J. and Kleinau, S.: Paradoxical effects of LS-2616 (Linomide) treatment in the type II collagen arthritis model in mice, Agents and Actions, 27:319-321, 1989.), wherein normal was rated 0 point, inflammation on one digit was 1 point, inflammation on two or more digits and normal metacarpal region and metatarsal region of the limbs, or inflammation on one digit and metacarpal region and metatarsal region of the limbs was 2 points, and inflammation on digits and metacarpal region and metatarsal region of the limbs was 3 points, each mouse scoring 0 to 12 points in total.
The treatment was continued for 6 weeks from day 41 from the initial injection of collagen. […]

[4] = test system: type I and type IV allergic dermatitis; test: Type I and Type IV allergic dermatitis (repeat application of DNFB) auricle swelling; assay type: in vivo, male BALB/c mice; settings: 100 mg/kg orally twice a day; for Increase in thickness of auricle by repeat application of 0.2% DNFB solution: mean ± standard error
Excerpt: According to the method of Nagai et al., (Naoki Inagaki and Hiroichi Nagai, The 8th Spring Meeting of Japanese Society of Allergology, 1996), the inhibitory action of diethyl acetoacetylcromoglycate on type I and type IV allergic dermatitis was examined.
According to this method, a type I allergic reaction is induced in addition to a type IV allergic reaction due to repeat contact sensitization with antigen. […] The method is described in detail in the following.
Male 6-week-old BALB/c mice (Japan SLC, Inc.) were divided into two groups of control group and administration group including 10 mice each. A 0.5% methylcellulose solution (10 ml/kg) was forcefully administered orally to the control group and diethyl acetoacetylcromoglycate (100 mg/kg) was forcefully administered orally to the administration group twice a day for 36 days for each group. The thickness of both auricles of each mouse was measured with a dial thickness gauge (Mitutoyo Co.) under ether anesthesia before initial administration on day 1 after administration. After the initial administration on day 8 of the administration, the thickness of both auricles of each mouse was measured with a dial thickness gauge under ether anesthesia. 0.2% Dinitrofluorobenzene (DNFB) dissolved in acetone-olive oil (mixing ratio 3:1) was applied by 25 μl to the left and right auricles. After 24 hours from the application, the thickness of both auricles of each mouse was measured under ether anesthesia with a dial thickness gauge. Thereafter, similar manipulation was repeated 4 times at a week interval. At the 5th application, the thickness of both auricles was also measured at 1 and 4 hours after the application.
Changes in the thickness of both auricles of each mouse were calculated from the measurement values of the thickness of the both auricles before the initial application. The average of changes in the thickness of the left and right auricles of each mouse was taken as the variation of the mouse.

Acute Toxicity Test = settings: mouse, in vivo; oral, suspension, male ICR mice
Excerpt: The cromoglycic acid compound prepared in the above Example 1 was orally administered to male ICR mice (3 per group) in the form of a suspension.

With `CCOC(=O)c1cc(=O)c2c(OCC(COc3cccc4oc(C(=O)OCC)cc(=O)c34)OC(=O)CC(C)=O)cccc2o1` [Example 1, Diethyl Acetoacetylcromoglycate] the “effect on X-ray score / bone destruction (in words)” value ([1]; day 42 after starting treatment, U-test with control group) was “signifiicant improvement in X-ray so re; also recorded: inhibition of bone destruction of feet and digits of the four limbs”, the X-ray score ([1]; day 83 after initial injection of collagen (day 42 after starting treatment), mean ± standard error (n = 8-10), control 10.20 ± 0.40, p < 0.01) was 5.80 ± 1.10 and the “effect on anti-bovine type II collagen antibody titer in blood (in words)” value ([2]; day 42 after initiation of treatment, ANOVA with control group) was “significant decrease in anti-bovine type II collagen antibody titer in blood; also recorded: inhibition of an increase in the anti-bovine collagen antibody titer in blood”. For the same compound, the “Anti-bovine type II collagen antibody titer in blood” value ([2]; day 83 after initial injection of collagen (day 42 after starting treatment), mean ± standard error (n = 8-10), control 0.301 ± 0.005, p < 0.01) was 0.203 ± 0.010, the “effect on arthritis score (in words)” value ([3]; 100 mg/kg/day orally, day 38 after start of treatment, U-test with control group) was “inhibition of the symptoms of collagen-induced arthritis (rheumatoid arthritis); also recorded: significant improvement in the arthritis scores” and the Arthritis score ([3]; 100 mg/kg/day orally, day 79 after initial injection of collagen (day 38 after starting treatment), control 10.70 ± 0.49, p < 0.01) was 6.36 ± 1.30. For the same compound, the Arthritis score ([3]; day 38 after initial injection of collagen (3 days before treatment)) was 1.80 ± 0.61, the “Increase in thickness of auricle by repeat application of 0.2% DNFB solution” value (from here on “Increase in thickness … of 0.2% DNFB solution”) ([4]; 1 hr after 5th application (type I allergic reaction), control 0.098 ± 0.012, p < 0.05) was 0.058 ± 0.007 mm and the “Increase in thickness … of 0.2% DNFB solution” value ([4]; 4 hr after 5th application, control 0.063 ± 0.007) was 0.056 ± 0.007 mm. For the same compound, the “Increase in thickness … of 0.2% DNFB solution” value ([4]; 24 hr after 1st application, control 0.011 ± 0.002) was 0.012 ± 0.002 mm, the “Increase in thickness … of 0.2% DNFB solution” value ([4]; 24 hr after 2nd application, control 0.048 ± 0.004, p < 0.05) was 0.037 ± 0.003 mm and the “Increase in thickness … of 0.2% DNFB solution” value ([4]; 24 hr after 3rd application, control 0.092 ± 0.009, p < 0.01) was 0.061 ± 0.005 mm. For the same compound, the “Increase in thickness … of 0.2% DNFB solution” value ([4]; 24 hr after 4th application, control 0.141 ± 0.012, p < 0.01) was 0.095 ± 0.009 mm, the “Increase in thickness … of 0.2% DNFB solution” value ([4]; 24 hr after 5th application, control 0.182 ± 0.015, p < 0.01) was 0.122 ± 0.010 mm and the “effect on swelling of the auricle (in words)” value ([4]; after the second application of DNFB, t-test with control group) was “significant inhibitory action on the swelling of the auricle after the second application”. The “Increase in thickness … of 0.2% DNFB solution” value ([4]; before 1st application, control 0.008 ± 0.003) was 0.008 ± 0.002 mm, the “Increase in thickness … of 0.2% DNFB solution” value ([4]; before 2nd application, control 0.033 ± 0.003) was 0.029 ± 0.003 mm and the “Increase in thickness … of 0.2% DNFB solution” value ([4]; before 3rd application, control 0.042 ± 0.005) was 0.035 ± 0.003 mm. The “Increase in thickness … of 0.2% DNFB solution” value ([4]; before 4th application, control 0.049 ± 0.004) was 0.040 ± 0.005 mm, the “Increase in thickness … of 0.2% DNFB solution” value ([4]; before 5th application, control 0.059 ± 0.006) was 0.048 ± 0.005 mm and the “effect on swelling of the auricle, type I allergic reaction (in words)” value ([4]; one hour after the fifth application of DNFB) was “significant inhibitory action on the swelling of the auricle”. It also gave an LD50 (Acute Toxicity Test) greater than 1000 mg/kg.
